From the CheMixHub ionic liquid set

Assay: xn = mol fraction of the nth substance listed
Conditions: for electrical conductivity: frequency 0.001 MHz

CO + CCCC[N+]1(C)CCCC1.O=S(=O)([N-]S(=O)(=O)C(F)(F)F)C(F)(F)F
Conditions | viscosity [mPa·s]
293.15 K, 101 kPa, x2 = 0 | 0.74

CCC(O)CO (stereo unspecified) + CCCC[N+](C)(C)C.O=S(=O)([N-]S(=O)(=O)C(F)(F)F)C(F)(F)F
Conditions | viscosity [mPa·s]
328.15 K, 101 kPa, x1 = 1 | 10.3

O=C([O-])C1=NN(c2ccc(S(=O)(=O)[O-])cc2)C(=O)C1N=Nc1ccc(S(=O)(=O)[O-])cc1.[Na+].[Na+].[Na+] (stereo unspecified) + CCCC[N+](CCCC)(CCCC)Cc1ccccc1.[Cl-] + O
101.3 kPa
Conditions | electrical conductivity, 298.15 K [S/m] | electrical conductivity, 308.15 K [S/m] | electrical conductivity, 318.15 K [S/m] | viscosity, 298.15 K [mPa·s] | viscosity, 308.15 K [mPa·s] | viscosity, 318.15 K [mPa·s]
x1 = 0.0001802, x2 = 1.802e-05 | 0.11 | 0.131 | 0.158 | 0.933 | 0.799 | 0.663
x1 = 0.0001803, x2 = 5.405e-05 | 0.119 | 0.142 | 0.182 | 0.951 | 0.818 | 0.68
x1 = 0.0001804, x2 = 9.008e-05 | 0.151 | 0.168 | 0.196 | 0.971 | 0.836 | 0.699
x1 = 0.0004504, x2 = 1.801e-05 | 0.176 | 0.226 | 0.28 | 0.956 | 0.818 | 0.68
x1 = 0.0004507, x2 = 5.403e-05 | 0.201 | 0.248 | 0.328 | 0.975 | 0.839 | 0.698
x1 = 0.000451, x2 = 9.005e-05 | 0.263 | 0.301 | 0.353 | 0.996 | 0.858 | 0.719
x1 = 0.0007205, x2 = 1.801e-05 | 0.245 | 0.299 | 0.384 | 0.975 | 0.836 | 0.695
x1 = 0.0007209, x2 = 5.402e-05 | 0.269 | 0.342 | 0.452 | 0.995 | 0.858 | 0.715
x1 = 0.0007213, x2 = 9.003e-05 | 0.369 | 0.419 | 0.478 | 1.019 | 0.878 | 0.738
x1 = 0.0009904, x2 = 1.8e-05 | 0.319 | 0.38 | 0.493 | 0.994 | 0.853 | 0.711
x1 = 0.000991, x2 = 5.4e-05 | 0.353 | 0.438 | 0.577 | 1.015 | 0.877 | 0.733
x1 = 0.0009916, x2 = 9e-05 | 0.469 | 0.524 | 0.603 | 1.039 | 0.897 | 0.756
x1 = 0.00126, x2 = 1.8e-05 | 0.398 | 0.476 | 0.609 | 1.011 | 0.869 | 0.725
x1 = 0.001261, x2 = 5.399e-05 | 0.435 | 0.546 | 0.716 | 1.034 | 0.895 | 0.749
x1 = 0.001262, x2 = 8.998e-05 | 0.582 | 0.654 | 0.763 | 1.06 | 0.917 | 0.774
x1 = 0.00153, x2 = 1.799e-05 | 0.472 | 0.571 | 0.735 | 1.028 | 0.884 | 0.738
x1 = 0.001531, x2 = 5.397e-05 | 0.511 | 0.651 | 0.852 | 1.052 | 0.913 | 0.764
x1 = 0.001532, x2 = 8.995e-05 | 0.702 | 0.78 | 0.902 | 1.081 | 0.938 | 0.792

CO + CCCC[n+]1ccc(C)cc1.F[B-](F)(F)F
Conditions | viscosity [mPa·s]
298.15 K, 101 kPa, x1 = 1 | 0.538

CO/N=C(\C(=O)N[C@@H]1C(=O)N2C(C(=O)[O-])=C(CSc3nc(=O)c(=O)[n-]n3C)CS[C@H]12)c1csc(N)n1.[Na+].[Na+] + CCCC[n+]1ccc(C)cc1.[Br-] + O
viscosity [mPa·s], 100 kPa
Conditions | x1 = 0.0003495, x2 = 0 | x1 = 0.0008732, x2 = 0 | x1 = 0.001391, x2 = 0 | x1 = 0.002502, x2 = 0 | x1 = 0.00312, x2 = 0 | x1 = 0.003888, x2 = 0 | x1 = 0.004767, x2 = 0 | x1 = 0.005484, x2 = 0
288.15 K | 1.196 | 1.273 | 1.365 | 1.604 | 1.745 | 1.964 | 2.205 | 2.45
293.15 K | 1.053 | 1.12 | 1.2 | 1.399 | 1.527 | 1.701 | 1.918 | 2.122
298.15 K | 0.935 | 0.994 | 1.062 | 1.231 | 1.348 | 1.495 | 1.674 | 1.858
303.15 K | 0.829 | 0.885 | 0.945 | 1.1 | 1.195 | 1.323 | 1.48 | 1.638
308.15 K | 0.744 | 0.794 | 0.849 | 0.982 | 1.07 | 1.184 | 1.322 | 1.455
